Source: ChEMBL document CHEMBL3885861, “Open TG-GATES”

Species on record: Rattus norvegicus
Test: Open TG-GATES - Regimen: Daily Repeat
Type: toxicity, organism-based, Sprague-Dawley
Parameters: regimen Daily Repeat, gender Male, age 6 weeks
Details: in vivo, po, 0 mg/kg, route gavage, dose level Control; for APTT / Bas / Eos / Fbg / Hb / Ht / Lym / MCH / MCHC / MCV / Mono / Neu / PT / Plat / RBC / Ret / WBC: tissue Blood; for KIDNEY_L / KIDNEY_R / KIDNEY_TOTAL: tissue Kidney; for LIVER: tissue Liver; for A/G / ALP / ALT / AST / BUN / CRE / Ca / Cl / DBIL / GLC / IP / K / LDH / Na / PL / RALB / TBIL / TC / TG / TP / gamma-GTP: tissue Plasma

Cn1cnc([N+](=O)[O-])c1Sc1ncnc2nc[nH]c12 [AZATHIOPRINE]
TERMINAL_BW (72 h, time 3 day): 200.7 g | APTT (72 h, time 3 day): 21.5 s | Bas (72 h, time 3 day): 0% | Eos (72 h, time 3 day): 0.8% | Fbg (72 h, time 3 day): 305.2 mg/dL | Hb (72 h, time 3 day): 13.5 g/dL | Ht (72 h, time 3 day): 39.8% | Lym (72 h, time 3 day): 80.4% | MCH (72 h, time 3 day): 21.4 pg | MCHC (72 h, time 3 day): 33.8% | MCV (72 h, time 3 day): 63.1 fL | Mono (72 h, time 3 day): 2.2% | Neu (72 h, time 3 day): 15.4% | PT (72 h, time 3 day): 16.3 s | Plat (72 h, time 3 day): 129.4 x10_4/uL | RBC (72 h, time 3 day): 630.8 x10_4/ul | Ret (72 h, time 3 day): 8% | WBC (72 h, time 3 day): 91.1 x10_2/uL | KIDNEY_L (72 h, time 3 day): 0.9 g | KIDNEY_R (72 h, time 3 day): 0.9 g | KIDNEY_TOTAL (72 h, time 3 day): 1.8 g | LIVER (72 h, time 3 day): 9.6 g | A/G (72 h, time 3 day): 1.2 | ALP (72 h, time 3 day): 1684.4 IU/L | ALT (72 h, time 3 day): 44.2 IU/L | AST (72 h, time 3 day): 69.2 IU/L | BUN (72 h, time 3 day): 16.6 mg/dL | CRE (72 h, time 3 day): 0.1 mg/dL | Ca (72 h, time 3 day): 11.2 mg/dL | Cl (72 h, time 3 day): 105.8 meq/L | DBIL (72 h, time 3 day): 0 mg/dL | GLC (72 h, time 3 day): 194.4 mg/dL | IP (72 h, time 3 day): 7.2 mg/dL | K (72 h, time 3 day): 3.9 meq/L | LDH (72 h, time 3 day): 220.4 IU/L | Na (72 h, time 3 day): 144 meq/L | PL (72 h, time 3 day): 157.8 mg/dL | RALB (72 h, time 3 day): 3 g/dL | TBIL (72 h, time 3 day): 0.006 mg/dL | TC (72 h, time 3 day): 79.8 mg/dL | TG (72 h, time 3 day): 115.6 mg/dL | TP (72 h, time 3 day): 5.5 g/dL | gamma-GTP (72 h, time 3 day): 1 IU/L | TERMINAL_BW ([…], time 7 day): 246.2 g | TERMINAL_BW ([…], time 14 day): 269.5 g | TERMINAL_BW ([…], time 28 day): 356.1 g | APTT ([…], time 7 day): 21.9 s | Bas ([…], time 7 day): 0% | Eos ([…], time 7 day): 0.8% | Fbg ([…], time 7 day): 327.8 mg/dL | Hb ([…], time 7 day): 13.8 g/dL | Ht ([…], time 7 day): 39.8% | Lym ([…], time 7 day): 77.4% | MCH ([…], time 7 day): 21.9 pg | MCHC ([…], time 7 day): 34.7% | MCV ([…], time 7 day): 63 fL | Mono ([…], time 7 day): 2.4% | Neu ([…], time 7 day): 18.2% | PT ([…], time 7 day): 15.8 s | Plat ([…], time 7 day): 123.7 x10_4/uL | RBC ([…], time 7 day): 631.4 x10_4/ul | Ret ([…], time 7 day): 6.8% | WBC ([…], time 7 day): 129.6 x10_2/uL | APTT ([…], time 14 day): 22.4 s | Bas ([…], time 14 day): 0% | Eos ([…], time 14 day): 0.8% | Fbg ([…], time 14 day): 309 mg/dL | Hb ([…], time 14 day): 14.9 g/dL | Ht ([…], time 14 day): 41.2% | Lym ([…], time 14 day): 87% | MCH ([…], time 14 day): 21.4 pg | MCHC ([…], time 14 day): 36.1% | MCV ([…], time 14 day): 59.4 fL | Mono ([…], time 14 day): 1.4% | Neu ([…], time 14 day): 10% | PT ([…], time 14 day): 16.9 s | Plat ([…], time 14 day): 103.8 x10_4/uL | RBC ([…], time 14 day): 694.4 x10_4/ul | Ret ([…], time 14 day): 4% | WBC ([…], time 14 day): 113.3 x10_2/uL | APTT ([…], time 28 day): 23.7 s | Bas ([…], time 28 day): 0% | Eos ([…], time 28 day): 1% | Fbg ([…], time 28 day): 314.8 mg/dL | Hb ([…], time 28 day): 15.3 g/dL | Ht ([…], time 28 day): 44.8% | Lym ([…], time 28 day): 84.8% | MCH ([…], time 28 day): 19.6 pg | MCHC ([…], time 28 day): 34.3% | MCV ([…], time 28 day): 57.1 fL | Mono ([…], time 28 day): 1.4% | Neu ([…], time 28 day): 12% | PT ([…], time 28 day): 17.1 s | Plat ([…], time 28 day): 109.1 x10_4/uL | RBC ([…], time 28 day): 784 x10_4/ul | Ret ([…], time 28 day): 2.7% | WBC ([…], time 28 day): 122.9 x10_2/uL | KIDNEY_L ([…], time 7 day): 1 g | KIDNEY_R ([…], time 7 day): 1.1 g | KIDNEY_TOTAL ([…], time 7 day): 2.1 g | KIDNEY_L ([…], time 14 day): 1.1 g | KIDNEY_R ([…], time 14 day): 1.1 g | KIDNEY_TOTAL ([…], time 14 day): 2.2 g | KIDNEY_L ([…], time 28 day): 1.2 g | KIDNEY_R ([…], time 28 day): 1.2 g | KIDNEY_TOTAL ([…], time 28 day): 2.4 g | LIVER ([…], time 7 day): 11.4 g | LIVER ([…], time 14 day): 11.7 g | LIVER ([…], time 28 day): 14.3 g | A/G ([…], time 7 day): 1.2 | ALP ([…], time 7 day): 1579.8 IU/L | ALT ([…], time 7 day): 42.4 IU/L | AST ([…], time 7 day): 72 IU/L | BUN ([…], time 7 day): 20.2 mg/dL | CRE ([…], time 7 day): 0.2 mg/dL | Ca ([…], time 7 day): 10.8 mg/dL | Cl ([…], time 7 day): 107.2 meq/L | DBIL ([…], time 7 day): 0 mg/dL | GLC ([…], time 7 day): 201.4 mg/dL | IP ([…], time 7 day): 6.6 mg/dL | K ([…], time 7 day): 4.3 meq/L | LDH ([…], time 7 day): 194.8 IU/L | Na ([…], time 7 day): 143.2 meq/L | PL ([…], time 7 day): 156.6 mg/dL | RALB ([…], time 7 day): 3 g/dL | TBIL ([…], time 7 day): 0.004 mg/dL | TC ([…], time 7 day): 80 mg/dL | TG ([…], time 7 day): 118.4 mg/dL | TP ([…], time 7 day): 5.5 g/dL | gamma-GTP ([…], time 7 day): 1.2 IU/L | A/G ([…], time 14 day): 1.1 | ALP ([…], time 14 day): 1520.8 IU/L | ALT ([…], time 14 day): 35.6 IU/L | AST ([…], time 14 day): 66.8 IU/L | BUN ([…], time 14 day): 17.8 mg/dL | CRE ([…], time 14 day): 0.2 mg/dL | Ca ([…], time 14 day): 10.4 mg/dL | Cl ([…], time 14 day): 107 meq/L | DBIL ([…], time 14 day): 0 mg/dL | GLC ([…], time 14 day): 178.2 mg/dL | IP ([…], time 14 day): 6.5 mg/dL | K ([…], time 14 day): 4.3 meq/L | LDH ([…], time 14 day): 153.2 IU/L | Na ([…], time 14 day): 143.6 meq/L | PL ([…], time 14 day): 135.6 mg/dL | RALB ([…], time 14 day): 3 g/dL | TBIL ([…], time 14 day): 0.004 mg/dL | TC ([…], time 14 day): 63.4 mg/dL | TG ([…], time 14 day): 146.2 mg/dL | TP ([…], time 14 day): 5.8 g/dL | gamma-GTP ([…], time 14 day): 1.2 IU/L | A/G ([…], time 28 day): 1.1 | ALP ([…], time 28 day): 1240.4 IU/L | ALT ([…], time 28 day): 44.8 IU/L | AST ([…], time 28 day): 71.6 IU/L | BUN ([…], time 28 day): 18.6 mg/dL | CRE ([…], time 28 day): 0.2 mg/dL | Ca ([…], time 28 day): 10.3 mg/dL | Cl ([…], time 28 day): 106.6 meq/L | DBIL ([…], time 28 day): 0 mg/dL | GLC ([…], time 28 day): 202.4 mg/dL | IP ([…], time 28 day): 5.5 mg/dL | K ([…], time 28 day): 3.7 meq/L | LDH ([…], time 28 day): 175.2 IU/L | Na ([…], time 28 day): 141.4 meq/L | PL ([…], time 28 day): 145.8 mg/dL | RALB ([…], time 28 day): 3.1 g/dL | TBIL ([…], time 28 day): 0.01 mg/dL | TC ([…], time 28 day): 66 mg/dL | TG ([…], time 28 day): 159.8 mg/dL | TP ([…], time 28 day): 6 g/dL | gamma-GTP ([…], time 28 day): 1 IU/L
